Earlier results as cited in patent publication US20120148649A1, “COMPOSITION FOR RESTORATION OF AGE RELATED TISSUE IN THE FACE OR SELECTED AREAS OF THE BODY” (priority 2004, published 2012).

Columns and labels:
tumor growth = settings: deuterium concentration from 0.1 to 110 ppm; animal model studies
cancer patients = settings: human clinical trials, hundreds of cancer patients

deuterium depleted water
effect on tumor growth (tumor growth): inhibits tumor growth | effect on life span of cancer patients (cancer patients): extended life span
